In US7504517B2, “Kv1.5 potassium channel inhibitors” (Wyeth, priority 2006, dated 2009) one finds IC50 and inhibition data, which are given here for 22 compounds.

Where a name gives a salt, the structure may show the parent alone.

Series [1] deals with L-type calcium channels. The series can be described thus: FLIPR L-Type Calcium Channel Assay. The class given is cell-based, murine. To be noted: HL-1 cells expressing endogenous L-type calcium channels; calcium influx after 20 mM KCl; read-out: L-type Ca^2+ IC50. As to the method: 50 μL per well test compounds are added to the plates and further incubated for 15 min. in a 5% CO2 37° C. incubator. All final solutions contain the anion exchange inhibitor, probenecid (2.5 mM). The 96-well plates are then placed in the center position of the FLIPR 1 (Fluorometric Imaging Plate Reader, Molecular Devices Corporation). Cell monolayers in each well are simultaneously illuminated at 488 nm with an Argon ion laser, and fluorescence emission is monitored using a 510-570 nm bandpass filter and a cooled CCD camera. To depolarize the plasma membrane and activate L-type calcium channels, 50 μL per well of 20 mM KCl (final concentration) are dispensed simultaneously to all 96 wells using the FLIPR's automatic 96-well pipettor. Fluorescence measurements are captured for 5 min. following KCl addition. Calcium influx, expressed as % control, is calculated for each concentration of test compound and concentration-response curves and IC50 values are generated using GraphPad Prism 4.0.

Series [2] addresses HERG (Homo sapiens, UniProt Q12809). As to the kind of experiment: HERG Patch Clamp EP. To be noted: for inhibition at 10 µM: human, HEK cells stably overexpressing HERG. (In general: The patch-clamp technique gives a direct electrical read-out from membranes.)
Procedure: HERG currents are recorded by the whole cell mode of patch clamp electrophysiology as described by Hamill et al.^3 HERG is stably over expressed in HEK cells. Microelectrodes are pulled from borosilicate glass (TW150) and heat polished (tip resistance, 1.5 to 3 megaohms). The external solution is standard Tyrodes solution. The internal (microelectrode) solution contained: 110 mM KCl, 5 mM K2ATP, 5 mM K4BAPTA, 1 mM MgCl2 and 10 mM HEPES, adjusted to pH 7.2 with KOH. […] Compounds are prepared as 10-20 mM DMSO stocks and diluted to appropriate test concentrations. […] Inhibition of HERG is measured at the peak of the tail currents and expressed relative to controls. Initial HERG activity is estimated by single point determinations run at 10 μM. Concentration response curves are generated for appropriate compounds utilizing at least four concentrations and an n=3. Curve fitting and IC50 estimating are done using Graphpad software (Ver. 4). • 1.
Series [3] concerns the target T1, Kv1.5 (Homo sapiens, UniProt P22460).
T1 construct: expressed in transfected cells; host or cells: HEK or LTK- cells
As to the kind of experiment: Kv1.5 Patch Clamp EP. The class given is cell-based. To be noted: whole cell patch clamp; for inhibition at 1 µM: single point, Kv1.5 stably over expressed in HEK or LTK- cells; for IC50: HEK or LTK- cells, at least four concentrations, n=3. On the procedure:
The external solution is standard Tyrodes solution. […] Inhibition was measured at the end of the 1 second pulses and expressed relative to controls. Initial Kv1.5 inhibition is estimated by single point determinations done at 1 μM.

Chain of HERG (Q12809 whole entry): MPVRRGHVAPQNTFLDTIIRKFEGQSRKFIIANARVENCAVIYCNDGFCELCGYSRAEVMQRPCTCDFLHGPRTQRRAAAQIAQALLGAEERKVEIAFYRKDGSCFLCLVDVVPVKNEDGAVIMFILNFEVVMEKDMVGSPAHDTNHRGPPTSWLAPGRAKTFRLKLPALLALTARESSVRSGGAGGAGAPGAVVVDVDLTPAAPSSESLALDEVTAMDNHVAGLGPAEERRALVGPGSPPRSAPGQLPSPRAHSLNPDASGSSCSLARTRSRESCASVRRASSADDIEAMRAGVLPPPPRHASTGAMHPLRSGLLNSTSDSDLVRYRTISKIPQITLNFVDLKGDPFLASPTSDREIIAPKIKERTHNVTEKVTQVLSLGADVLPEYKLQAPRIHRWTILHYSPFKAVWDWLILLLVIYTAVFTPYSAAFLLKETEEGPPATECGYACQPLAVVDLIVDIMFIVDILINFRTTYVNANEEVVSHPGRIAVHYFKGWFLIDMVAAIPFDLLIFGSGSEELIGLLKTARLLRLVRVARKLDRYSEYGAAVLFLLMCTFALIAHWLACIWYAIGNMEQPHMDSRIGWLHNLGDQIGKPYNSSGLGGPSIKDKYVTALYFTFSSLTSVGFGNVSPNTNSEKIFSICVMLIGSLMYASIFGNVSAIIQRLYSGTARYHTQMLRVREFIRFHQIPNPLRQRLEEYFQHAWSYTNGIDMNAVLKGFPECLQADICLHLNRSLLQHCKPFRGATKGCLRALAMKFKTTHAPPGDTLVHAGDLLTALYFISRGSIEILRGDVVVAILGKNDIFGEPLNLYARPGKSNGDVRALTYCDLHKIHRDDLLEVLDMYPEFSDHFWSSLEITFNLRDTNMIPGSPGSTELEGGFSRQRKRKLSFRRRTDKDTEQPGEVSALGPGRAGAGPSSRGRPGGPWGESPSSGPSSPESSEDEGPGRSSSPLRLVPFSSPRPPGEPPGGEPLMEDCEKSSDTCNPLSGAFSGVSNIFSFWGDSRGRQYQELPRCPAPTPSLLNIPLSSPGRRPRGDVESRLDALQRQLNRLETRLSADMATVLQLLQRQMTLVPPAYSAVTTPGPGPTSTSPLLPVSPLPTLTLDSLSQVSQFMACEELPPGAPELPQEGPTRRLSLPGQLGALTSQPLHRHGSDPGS
T1 sequence (P22460 whole entry): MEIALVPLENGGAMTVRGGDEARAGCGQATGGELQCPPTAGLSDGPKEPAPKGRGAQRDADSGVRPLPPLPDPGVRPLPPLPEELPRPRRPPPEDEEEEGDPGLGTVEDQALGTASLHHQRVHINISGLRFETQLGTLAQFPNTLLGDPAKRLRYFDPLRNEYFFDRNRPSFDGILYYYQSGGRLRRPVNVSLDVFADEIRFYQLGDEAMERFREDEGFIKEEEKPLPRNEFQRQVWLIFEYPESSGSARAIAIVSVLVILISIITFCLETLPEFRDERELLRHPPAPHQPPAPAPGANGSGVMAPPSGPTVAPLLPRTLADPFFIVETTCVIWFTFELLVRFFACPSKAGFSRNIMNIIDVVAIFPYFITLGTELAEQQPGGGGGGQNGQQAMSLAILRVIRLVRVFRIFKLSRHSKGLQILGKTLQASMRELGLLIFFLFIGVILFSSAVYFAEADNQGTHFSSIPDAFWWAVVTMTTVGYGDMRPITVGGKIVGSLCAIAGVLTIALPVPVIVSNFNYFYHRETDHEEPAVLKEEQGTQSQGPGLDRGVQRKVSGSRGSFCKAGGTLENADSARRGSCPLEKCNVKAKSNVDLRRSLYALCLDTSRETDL

Broadly, the IC50 is the concentration that gives 50% inhibition. The inhibition is the relative decrease from the control value, in per cent. As to `COc1ccc(CCN2C(=O)N(NS(=O)(=O)C3CC3)CC2c2ccc(OC)cc2)cc1` (centres unmarked) [Compound 29, 1-(Cyclopropylsulfonylamino)-3-[(4-methoxyphenyl)ethyl]-4-(4-methoxyphenyl)-2-imidazolidinone], the IC50 in series [1] is 34 µM. Further, the inhibition at 10 µM in series [2] was 31%. Besides, in series [3], the inhibition at 1 µM is 85%.
The like results for `COc1ccc(CCN2C(=O)N(N)CC2c2ccc(C3CC3)cc2)cc1` (centres unmarked) [Compound 6, 1-Amino-3-[2-(4-methoxyphenyl)ethyl]-4-(4-cyclopropylphenyl)-2-imidazolidinone 4-methylbenzenesulfonic acid salt] were, in that order, 12 µM, 29% and 53%.
Consider `COc1ccc(CCN2C(=O)N(NS(=O)(=O)CC(=O)NCC3CC3)CC2c2ccc(OC)cc2)cc1` (centres unmarked) [Compound 57, 1-[[2-[(Cyclopropylmethyl)amino]-2-oxoethyl]sulfonylamino]-3-[2-(4-methoxy-phenyl)ethyl]-4-(4-methoxyphenyl)-2-imidazolidinone], for which the IC50 in series [1] came out at 30 µM. In series [2], this compound had an IC50 of 12.4 µM and an inhibition at 10 µM of 12%. In series [3], this compound displayed an inhibition at 1 µM of 66% and an IC50 of 0.631 µM.
Take `COc1ccc(CCN2C(=O)N(NCc3ccc(N(C)C)cc3)CC2c2ccc(OC)cc2)cc1` (centres unmarked) [Compound 90, 1-[(4-(Dimethylamino)phenylmethyl)amino]-3-[2-(4-methoxyphenyl)ethyl]-4-(4-methoxyphenyl)-2-imidazolidinone]: the IC50 in series [1] is 7 µM. Moreover, in series [2], the inhibition at 10 µM was 28%. This compound also displayed an inhibition at 1 µM in series [3] of 74%.
For `COc1ccc(CCN2C(=O)N(NS(=O)(=O)CC(=O)N(C)C)CC2c2ccc(C3CC3)cc2)cc1` (centres unmarked) [Compound 54, 1-[[2-(Dimethylamino)-2-oxoethyl]sulfonylamino]-3-[2-(4-methoxyphenyl)-ethyl]-4-(4-cyclopropylphenyl)-2-imidazolidinone], in that order: 30 µM, 46% and 80%.
With `COc1ccc(CCN2C(=O)N(NC(=O)OC(C)(C)C)CC2c2ccc(C)c(C)c2)cc1` (centres unmarked) [Compound 85, {4-(3,4-dimethylphenyl)-3-[2-(4-methoxyphenyl)ethyl]-2-oxo-imidazolidin-1-yl}-carbamic acid tert-butyl ester], the IC50 in series [1] was determined as 3.3 µM. The compound also returned an inhibition at 10 µM in series [2] of 52%. The same compound yielded an inhibition at 1 µM in series [3] of 92%.
For `COc1ccc(CCN2C(=O)N(NS(C)(=O)=O)CC2c2ccc(C)c(OC)c2)cc1` (centres unmarked) [Compound 13, 1-(Methylsulfonylamino)-3-[2-(4-methoxyphenyl)ethyl]-4-[(3-methoxy-4-methyl)phenyl]-2-imidazolidinone], in that order: 27 µM, 10% and 83%.
In the case of `COc1ccc(CCN2C(=O)N(NS(N)(=O)=O)CC2c2ccc(C3CC3)cc2)cc1` (centres unmarked) [Compound 10, 1-(Aminosulfonylamino)-3-[2-(4-methoxyphenyl)ethyl]-4-[(4-cyclopropyl)-phenyl]-2-imidazolidinone], the IC50 in series [1] is 22 µM. At 10 µM the inhibition in series [2] was 57%. For the same compound, in series [3], the inhibition at 1 µM was found to be 89% and half-maximal inhibition (IC50) required 0.238 µM.
The like results for `COc1ccc(CCN2C(=O)N(NC(=O)C3CC3)CC2c2ccc(C(C)(C)C)cc2)cc1` (centres unmarked) [Compound 73, 1-Cyclopropanecarbonylamino-4-[4-(tert-butyl)phenyl]-3-[2-(4-methoxy-phenyl)ethyl]-2-imidazolidinone] were, in that order, 7 µM, 56%, 62% and 0.658 µM.
As for `CS(=O)(=O)NN1CC(c2ccc(C3CC3)cc2)N(CCCc2ccccc2)C1=O` (centres unmarked) [Compound 45, 1-(Methylsulfonylamino)-3-(3-phenylpropyl)-4-(4-cyclopropylphenyl)-2-imidazolidinone], the IC50 in series [1] was found to be 16 µM. This compound also yielded an inhibition at 10 µM in series [2] of 55%. At 1 µM the inhibition in series [3] was 83%.
As to `COc1ccc(CCN2C(=O)N(NS(C)(=O)=O)CC2c2ccc(C3CC3)cc2)cc1` (centres unmarked) [Compound 28, 1-[(Methylsulfonyl)amino]-3-[(4-methoxyphenyl)ethyl]-4-(4-cyclopropylphenyl)-2-imidazolidinone], in series [1], the IC50 is 16 µM. Also, in series [2], the IC50 was 10.3 µM and testing at 10 µM gave an inhibition of 30%. In series [3], this compound gave an inhibition at 1 µM of 89% and an IC50 of 0.184 µM.
As for `COc1ccc(CCN2C(=O)N(NCc3cnc4ccccc4c3)CC2c2ccc(C)c(C)c2)cc1` (centres unmarked) [Compound 96, 4-(3,4-Dimethylphenyl)-3-[2-(4-methoxyphenyl)ethyl]-1-[(quinolin-3-ylmethyl)-amino]-2-imidazolidinone], in series [1], the IC50 turned out to be 1.9 µM. This compound also returned an inhibition at 10 µM in series [2] of 87%. In series [3], this compound displayed an inhibition at 1 µM of 86%.
For `COc1ccc(CCN2C(=O)N(NS(=O)(=O)Cc3ccccc3)CC2c2ccc(OC)cc2)cc1` (centres unmarked) [Compound 63, 1-[(Phenylmethyl)sulfonylamino]-3-[2-(4-methoxyphenyl)ethyl]-4-(4-methoxyphenyl)-2-imidazolidinone], in that order: 6.3 µM, 44% and 95%.
For `COc1ccc(CCN2C(=O)N(NS(=O)(=O)CC#N)CC2c2ccc3c(c2)OCCO3)cc1` (centres unmarked) [Compound 40, 1-(Cyanomethylsulfonylamino)-3-[2-(4-methoxyphenyl)ethyl]-4-[(2,3-dihydro-benzo[b][1,4]dioxin-6-yl)]-2-imidazolidinone], in that order: 30 µM, 1% and 70%.
For `COc1ccc(CCN2C(=O)N(NS(=O)(=O)CC(N)=O)CC2c2ccc(C3CC3)cc2)cc1` (centres unmarked) [Compound 52, 1-[(2-Amino-2-oxoethyl)sulfonylamino]-3-[2-(4-methoxyphenyl)ethyl]-4-(4-cyclopropylphenyl)-2-imidazolidinone], in that order: 16 µM, 29% and 80%.
On to `COCCN(N1CC(c2ccc(C3CC3)cc2)N(CCc2ccc(OC)cc2)C1=O)S(C)(=O)=O` (centres unmarked) [Compound 68, 1-[(N-Methoxyethyl-N-methylsulfonyl)amino]-3-[2-(4-methoxyphenyl)ethyl]-4-(4-cyclopropylphenyl)-2-imidazolidinone], for which the IC50 in series [1] came to 16 µM. In series [2], this compound had an inhibition at 10 µM of 48%. This compound also had an inhibition at 1 µM in series [3] of 60%.
Take `COc1ccc(CCN2C(=O)N(NS(C)(=O)=O)C[C@H]2c2ccc(OC(F)F)cc2)cc1` [Compound 170, N-{(4R)-4-[4-(difluoromethoxy)phenyl]-3-[2-(4-methoxyphenyl)ethyl]-2-oxoimidazolidin-1-yl}methanesulfonamide]: in series [1], the IC50 amounted to 30 µM. Besides, in series [2], at 10 µM the inhibition was 62%. In addition, the inhibition at 1 µM in series [3] was determined as 49%.
The like results for `COc1ccc(CCN2C(=O)N(N(CCn3ccnc3)C(=O)OC(C)(C)C)CC2c2ccc(C(C)(C)C)cc2)cc1` (centres unmarked) [Compound 146, tert-butyl {4-(4-tert-butylphenyl)-3-[2-(4-methoxyphenyl)ethyl]-2-oxoimidazolidin-1-yl}[2-(1H-imidazol-1-yl)ethyl]carbamate] were, in that order, 15 µM, 86% and 83%.
For `COc1ccc(CCN2C(=O)N(NS(C)(=O)=O)CC2c2ccc3c(c2)OCCO3)cc1` (centres unmarked) [Compound 17, 1-(Methylsulfonylamino)-3-[2-(4-methoxyphenyl)ethyl]-4-[(2,3-dihydro-benzo[1,4]dioxin-6-yl)]-2-imidazolidinone], in that order: 40 µM, 22% and 89%.
For `COc1ccc(CCCN2C(=O)N(NS(=O)(=O)CS(C)(=O)=O)CC2c2ccc(C3CC3)cc2)cc1` (centres unmarked) [Compound 127, N-{4-(4-cyclopropylphenyl)-3-[3-(4-methoxyphenyl)propyl]-2-oxoimidazolidin-1-yl}-1-(methylsulfonyl)methanesulfonamide], in that order: 19 µM, 54% and 91%.
As to `COCCN(CCOC)C(=O)CS(=O)(=O)NN1CC(c2ccc(C3CC3)cc2)N(CCc2ccc(OC)cc2)C1=O` (centres unmarked) [Compound 60, 1-[[2-[(Bis(methoxyethyl)amino)]-2-oxoethyl]sulfonylamino]-3-[2-(4-methoxy-phenyl)ethyl]-4-(4-cyclopropylphenyl)-2-imidazolidinone], the figures for the IC50 in series [1], in series [2] and in series [3] were 10.6 µM, 7.4 µM and 0.453 µM, respectively. The same compound had an inhibition at 10 µM in series [2] of 44%. In series [3], this compound had an inhibition at 1 µM of 77%.
For `COc1ccc(CCN2C(=O)N(NC(=O)c3ccno3)CC2c2ccc(C(C)(C)C)cc2)cc1` (centres unmarked) [Compound 79, 1-(Isoxazol-5-ylcarbonylamino)-3-[2-(4-methoxyphenyl)-ethyl]-4-[4-(tert-butyl)phenyl]-2-imidazolidinone], the IC50 in series [1] worked out at 11 µM. The same compound returned an inhibition at 10 µM in series [2] of 70%. In addition, testing at 1 µM in series [3] gave an inhibition of 68%.
